Where a SMILES comes first, the peptide text is derived from it. Bridges are numbered along the chain shown (N, C = ends). [ ]: non-standard residue; d: D form. The star is where a group is joined. Ala(thiazol-5-yl) = N[C@@H](Cc1cncs1)C(=O)O; Bip = N[C@@H](Cc1ccc(-c2ccccc2)cc1)C(=O)O; Phe(3-Cl) = N[C@@H](Cc1cccc(Cl)c1)C(=O)O; Phe(3-OMe) = COc1cccc(C[C@H](N)C(=O)O)c1; 4Pal = N[C@@H](Cc1ccncc1)C(=O)O; Cha = N[C@@H](CC1CCCCC1)C(=O)O; hSer = N[C@@H](CCO)C(=O)O; Carboxymethyl = O=C(O)C*; Orn = NCCC[C@H](N)C(=O)O; Dab = NCC[C@H](N)C(=O)O; Dap = NC[C@H](N)C(=O)O; Bn = c1ccc(C*)cc1
The molecules below were run against T1, human PD-1 / PD-L1-Ig binding on Jurkat cell line over-expressing human PD-1 (Jurkat-PD-1) (Homo sapiens, UniProt Q15116) (assay: Jurkat-PD-1 Cell Binding High-Content Screening Assay (CBA)). Settings: Jurkat-PD-1 cells, PE-labeled PD-L1-Ig 20 nM final; read-out: Jurkat HPD1_PDL1 IC50.
T1 construct: expressed in transfected cells; host or cells: Jurkat
Assay type: cell-based
How it was run: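 Jurkat-hPD-1 cells in DMEM with 10% fetal calf serum receive test compound and are held at 37° C for 2 h. PE-labeled PD-L1-Ig is added at 20 nM final and left for 1 hour. Cells are then fixed and Hoechst-stained, and binding is measured by imaging.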

T1 sequence (Q15116 25-288): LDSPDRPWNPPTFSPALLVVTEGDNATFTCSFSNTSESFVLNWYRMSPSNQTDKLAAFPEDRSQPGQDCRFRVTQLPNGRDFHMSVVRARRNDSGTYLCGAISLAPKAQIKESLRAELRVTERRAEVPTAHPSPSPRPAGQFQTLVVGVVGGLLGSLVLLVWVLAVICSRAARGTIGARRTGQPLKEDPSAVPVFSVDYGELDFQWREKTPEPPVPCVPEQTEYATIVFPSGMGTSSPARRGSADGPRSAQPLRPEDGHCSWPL

Row | IC50 | Structure (SMILES)
1 | 22.6 nM | CC(C)C[C@H]1NC(=O)[C@H](CCCN)NC(=O)[C@H](CCC(=O)O)NC(=O)[C@H](Cc2ccc(-c3ccccc3)cc2)NC(=O)[C@H](C(C)C)NC(=O)[C@H](Cc2cccc(Cl)c2)NC(=O)[C@H](CC(=O)O)NC(=O)[C@H](Cc2ccc(OCC(=O)O)cc2)NC(=O)[C@H](Cc2ccncc2)NC(=O)CSC[C@@H](C(=O)N[C@@H](C)C(N)=O)NC(=O)[C@H]([C@@H](C)O)NC(=O)[C@H](C(C)C)NC(=O)[C@H](CC2CCCCC2)NC(=O)[C@H](CCN)NC1=O [Compound 1491]
2 | 27.4 nM | CC(C)C[C@H]1NC(=O)[C@H](CCCN)NC(=O)[C@H](CCC(=O)O)NC(=O)[C@H](Cc2ccc(-c3ccccc3)cc2)NC(=O)[C@H](C(C)C)NC(=O)[C@H](Cc2cccc(Cl)c2)NC(=O)[C@H](CC(=O)O)NC(=O)[C@H](Cc2ccc(C(=O)O)cc2)NC(=O)[C@H](Cc2ccc(OCC(=O)O)cc2)NC(=O)CSC[C@@H](C(=O)N[C@@H](C)C(N)=O)NC(=O)[C@H]([C@@H](C)O)NC(=O)[C@H](C(C)C)NC(=O)[C@H](CC2CCCCC2)NC(=O)[C@H](CCN)NC1=O [Compound 1492]
3 | 10.8 nM | CC(C)C[C@H]1NC(=O)[C@H](CCCN)NC(=O)[C@H](CCC(=O)O)NC(=O)[C@H](Cc2ccc(-c3ccccc3)cc2)NC(=O)[C@H](C(C)C)NC(=O)[C@H](Cc2cccc(Cl)c2)NC(=O)[C@H](CC(=O)O)NC(=O)[C@H](Cc2ccncc2)NC(=O)[C@H](Cc2ccc(OCC(=O)O)cc2)NC(=O)CSC[C@@H](C(=O)N[C@@H](C)C(N)=O)NC(=O)[C@H]([C@@H](C)O)NC(=O)[C@H](C(C)C)NC(=O)[C@H](CC2CCCCC2)NC(=O)[C@H](CCN)NC1=O [Compound 1493] ({CH2CO}-Y(Carboxymethyl)[4Pal]D[Phe(3-Cl)]V[Bip]E[Orn][dL][Dab][Cha]VTCA-NH2; thioether N-14)
4 | 13.8 nM | CC(C)C[C@H]1NC(=O)[C@H](CCCN)NC(=O)[C@H](CCC(=O)O)NC(=O)[C@H](Cc2ccc(-c3ccccc3)cc2)NC(=O)[C@H](C(C)C)NC(=O)[C@H](Cc2cccc(Cl)c2)NC(=O)[C@H](CC(=O)O)NC(=O)[C@H](Cc2ccc(O)cc2)NC(=O)[C@H](CC(N)=O)NC(=O)CSC[C@@H](C(=O)N[C@@H](C)C(N)=O)NC(=O)[C@H]([C@@H](C)O)NC(=O)[C@H](C(C)C)NC(=O)[C@H](CC2CCCCC2)NC(=O)[C@H](CCN)NC1=O [Compound 1494] ({CH2CO}-NYD[Phe(3-Cl)]V[Bip]E[Orn][dL][Dab][Cha]VTCA-NH2; thioether N-14)
5 | 5.8 nM | CC(C)C[C@H]1NC(=O)[C@H](CCCN)NC(=O)[C@H](CCC(=O)O)NC(=O)[C@H](Cc2ccc(-c3ccccc3)cc2)NC(=O)[C@H](C(C)C)NC(=O)[C@H](Cc2cccc(Cl)c2)NC(=O)[C@H](CC(=O)O)NC(=O)[C@H](Cc2ccc(OCC(=O)O)cc2)NC(=O)[C@H](CN)NC(=O)CSC[C@@H](C(=O)N[C@@H](C)C(N)=O)NC(=O)[C@H]([C@@H](C)O)NC(=O)[C@H](C(C)C)NC(=O)[C@H](CC2CCCCC2)NC(=O)[C@H](CCN)NC1=O [Compound 1495]
6 | 17.9 nM | CC(C)C[C@H]1NC(=O)[C@H](CCCN)NC(=O)[C@H](CCC(=O)O)NC(=O)[C@H](Cc2ccc(-c3ccccc3)cc2)NC(=O)[C@H](C(C)C)NC(=O)[C@H](Cc2cccc(Cl)c2)NC(=O)[C@H](CC(=O)O)NC(=O)[C@H](Cc2ccncc2)NC(=O)[C@H](CN)NC(=O)CSC[C@@H](C(=O)N[C@@H](C)C(N)=O)NC(=O)[C@H]([C@@H](C)O)NC(=O)[C@H](C(C)C)NC(=O)[C@H](CC2CCCCC2)NC(=O)[C@H](CCN)NC1=O [Compound 1496] ({CH2CO}-[Dap][4Pal]D[Phe(3-Cl)]V[Bip]E[Orn][dL][Dab][Cha]VTCA-NH2; thioether N-14)
7 | 344 nM | CC(C)C[C@H]1NC(=O)[C@H](CCCN)NC(=O)[C@H](CCC(=O)O)NC(=O)[C@H](Cc2ccc(-c3ccccc3)cc2)NC(=O)[C@H](C(C)C)NC(=O)[C@H](Cc2c[nH]c3ccccc23)NC(=O)[C@H](COCc2ccccc2)NC(=O)[C@H](Cc2ccc(OCC(=O)O)cc2)NC(=O)[C@H](CN)NC(=O)CSC[C@@H](C(=O)N[C@@H](C)C(N)=O)NC(=O)[C@H]([C@@H](C)O)NC(=O)[C@H](C(C)C)NC(=O)[C@H](CC2CCCCC2)NC(=O)[C@H](CCN)NC1=O [Compound 1497] ({CH2CO}-[Dap]Y(Carboxymethyl)S(Bn)WV[Bip]E[Orn][dL][Dab][Cha]VTCA-NH2; thioether N-14)
8 | 366 nM | CC(C)C[C@H]1NC(=O)[C@H](CCCN)NC(=O)[C@H](CCC(=O)O)NC(=O)[C@H](Cc2ccc(-c3ccccc3)cc2)NC(=O)[C@H](C(C)C)NC(=O)[C@H](Cc2c[nH]c3ccccc23)NC(=O)[C@H](CO)NC(=O)[C@H](Cc2ccc(OCC(=O)O)cc2)NC(=O)[C@H](CN)NC(=O)CSC[C@@H](C(=O)N[C@@H](C)C(N)=O)NC(=O)[C@H]([C@@H](C)O)NC(=O)[C@H](C(C)C)NC(=O)[C@H](CC2CCCCC2)NC(=O)[C@H](CCN)NC1=O [Compound 1498] ({CH2CO}-[Dap]Y(Carboxymethyl)SWV[Bip]E[Orn][dL][Dab][Cha]VTCA-NH2; thioether N-14)
9 | 663 nM | CC(C)C[C@H]1NC(=O)[C@H](CCCN)NC(=O)[C@H](CCC(=O)O)NC(=O)[C@H](Cc2ccc(-c3ccccc3)cc2)NC(=O)[C@H](C(C)C)NC(=O)[C@H](Cc2c[nH]c3ccccc23)NC(=O)[C@H](CCO)NC(=O)[C@H](Cc2ccc(OCC(=O)O)cc2)NC(=O)[C@H](CN)NC(=O)CSC[C@@H](C(=O)N[C@@H](C)C(N)=O)NC(=O)[C@H]([C@@H](C)O)NC(=O)[C@H](C(C)C)NC(=O)[C@H](CC2CCCCC2)NC(=O)[C@H](CCN)NC1=O [Compound 1499] ({CH2CO}-[Dap]Y(Carboxymethyl)[hSer]WV[Bip]E[Orn][dL][Dab][Cha]VTCA-NH2; thioether N-14)
10 | 238 nM | COC[C@@H]1NC(=O)[C@H](Cc2ccc(OCC(=O)O)cc2)NC(=O)[C@H](CN)NC(=O)CSC[C@@H](C(=O)N[C@@H](C)C(N)=O)NC(=O)[C@H]([C@@H](C)O)NC(=O)[C@H](C(C)C)NC(=O)[C@H](CC2CCCCC2)NC(=O)[C@H](CCN)NC(=O)[C@@H](CC(C)C)NC(=O)[C@H](CCCN)NC(=O)[C@H](CCC(=O)O)NC(=O)[C@H](Cc2ccc(-c3ccccc3)cc2)NC(=O)[C@H](C(C)C)NC(=O)[C@H](Cc2c[nH]c3ccccc23)NC1=O [Compound 1500] ({CH2CO}-[Dap]Y(Carboxymethyl)S(Me)WV[Bip]E[Orn][dL][Dab][Cha]VTCA-NH2; thioether N-14)
11 | 10.7 nM | CC(C)C[C@H]1NC(=O)[C@H](CCCN)NC(=O)[C@H](CCC(=O)O)NC(=O)[C@H](Cc2ccc(-c3ccccc3)cc2)NC(=O)[C@H](C(C)C)NC(=O)[C@H](Cc2cccc(Cl)c2)NC(=O)[C@H](CC(=O)O)NC(=O)[C@H](Cc2ccc(OCC(=O)O)cc2)NC(=O)[C@H](Cc2cccnc2)NC(=O)CSC[C@@H](C(=O)N[C@@H](C)C(N)=O)NC(=O)[C@H]([C@@H](C)O)NC(=O)[C@H](C(C)C)NC(=O)[C@H](CC2CCCCC2)NC(=O)[C@H](CCN)NC1=O [Compound 1501]
12 | 16.8 nM | CC(C)C[C@H]1NC(=O)[C@H](CCCN)NC(=O)[C@H](CCC(=O)O)NC(=O)[C@H](Cc2ccc(-c3ccccc3)cc2)NC(=O)[C@H](C(C)C)NC(=O)[C@H](Cc2cccc(C(F)(F)F)c2)NC(=O)[C@H](CC(=O)O)NC(=O)[C@H](Cc2ccc(OCC(=O)O)cc2)NC(=O)[C@H](Cc2cccnc2)NC(=O)CSC[C@@H](C(=O)N[C@@H](C)C(N)=O)NC(=O)[C@H]([C@@H](C)O)NC(=O)[C@H](C(C)C)NC(=O)[C@H](CC2CCCCC2)NC(=O)[C@H](CCN)NC1=O [Compound 1502]
13 | 42.8 nM | CC(C)C[C@H]1NC(=O)[C@H](CCCN)NC(=O)[C@H](CCC(=O)O)NC(=O)[C@H](Cc2ccc(-c3ccccc3)cc2)NC(=O)[C@H](C(C)C)NC(=O)[C@H](Cc2c[nH]c3ccccc23)NC(=O)[C@H](CC(=O)O)NC(=O)[C@H](Cc2ccc(OCC(=O)O)cc2)NC(=O)[C@H](CN)NC(=O)CSC[C@@H](C(=O)N[C@@H](C)C(N)=O)NC(=O)[C@H]([C@@H](C)O)NC(=O)[C@H](C(C)C)NC(=O)[C@H](Cc2cncs2)NC(=O)[C@H](CCN)NC1=O [Compound 1503] ({CH2CO}-[Dap]Y(Carboxymethyl)DWV[Bip]E[Orn][dL][Dab][Ala(thiazol-5-yl)]VTCA-NH2; thioether N-14)
14 | 5.2 nM | COc1cccc(C[C@@H]2NC(=O)[C@H](CC(=O)O)NC(=O)[C@H](Cc3ccc(OCC(=O)O)cc3)NC(=O)[C@H](Cc3ccc(OCC(=O)O)cc3)NC(=O)CSC[C@@H](C(=O)N[C@@H](C)C(N)=O)NC(=O)[C@H]([C@@H](C)O)NC(=O)[C@H](C(C)C)NC(=O)[C@H](CC3CCCCC3)NC(=O)[C@H](CCN)NC(=O)[C@@H](CC(C)C)NC(=O)[C@H](CCCN)NC(=O)[C@H](CCC(=O)O)NC(=O)[C@H](Cc3ccc(-c4ccccc4)cc3)NC(=O)[C@H](C(C)C)NC2=O)c1 [Compound 1504]
15 | 23.7 nM | COc1cccc(C[C@@H]2NC(=O)[C@H](CC(=O)O)NC(=O)[C@H](Cc3ccncc3)NC(=O)[C@H](Cc3ccc(OCC(=O)O)cc3)NC(=O)CSC[C@@H](C(=O)N[C@@H](C)C(N)=O)NC(=O)[C@H]([C@@H](C)O)NC(=O)[C@H](C(C)C)NC(=O)[C@H](CC3CCCCC3)NC(=O)[C@H](CCN)NC(=O)[C@@H](CC(C)C)NC(=O)[C@H](CCCN)NC(=O)[C@H](CCC(=O)O)NC(=O)[C@H](Cc3ccc(-c4ccccc4)cc3)NC(=O)[C@H](C(C)C)NC2=O)c1 [Compound 1505] ({CH2CO}-Y(Carboxymethyl)[4Pal]D[Phe(3-OMe)]V[Bip]E[Orn][dL][Dab][Cha]VTCA-NH2; thioether N-14)
